Data from patent US7393812B2, “Methylidene mevalonates and their use as herbicides” (Dow AgroSciences LLC, priority 2004, dated 2008).

Key:
Assay in all cases: General herbicidal evaluation, preemergence
Format in all cases: in vivo
Settings in all cases: 16 days after treatment
[1] = test system: pigweed (Amaranthus spp., AMARE)
Excerpt: (§1) Applications of methylidene mevalonate were made either to the foliage (postemergence) or soil (preemergence). Seeds of sunflower (Helianthus annus, HELAN), morningglory (Ipomoea hederacea, IPOHE) velvetleaf (Abutilon theophrasti, ABUTH), pigweed (Amaranthus spp., AMARE), barnyardgrass (Echinochloa crusgalli, ECHCG), giant foxtail (Setaria faberi, SETFA), wild oats (Avena fatua, AVEFA), and blackgrass (Alopecurus myosuroides, ALOMY) were planted in mineral soil (sandy clay loam, 51% sand, 26% silt, 23% clay, 2.8% O.M., pH 7.8) and Metro-mix (Bulk Sak, Inc., Malvern, Ark., USA) for preemergence and postemergence treatments, respectively. Pots receiving preemergence treatments were watered immediately following application. Prior to postemergence treatment, plants were grown in the greenhouse (16 h photoperiod, 27 C) and thinned to a density of 2 to 15 plants pot^−1, depending on species. At the time of postemergence applications, plants were 8-12 days old, 3 to 10 cm in height, and in the 1- to 3-true-leaf stage. Natural light in the greenhouse was supplemented with metal halide lights that provided an average photosynthetic photon flux of 500 μmol m^−2s^−1.
(§2) A sample of sodium methylidene mevalonate was dissolved in 4 mL of distilled water followed by 10 mL of formulation stock “B” (200 mL isopropanol, 20 mL crop oil concentrate, 0.4 g Triton X-155 [Sigma Chemical Co., St. Louis, Mo. 62718], and 78 mL water). This was followed by three 1:1 (v/v) serial dilutions using formulation stock “C” (100 mL isopropanol, 10 mL crop oil concentrate, 0.2 g Triton X-155, 390 mL water, 485 mL acetone and 15 mL DMSO).
(§3) Treatments were made at four different doses (4000, 2000, 1000, and 500 g ha^−1). For preemergence treatments, 1.75 mL of spray solution were applied to the soil surface in each pot using a glass Cornwall syringe fitted with a Teejet SS8001E flat-fan nozzle (Spraying Systems Co., Wheaton, Ill. 60189-7900). For postemergence applications, the foliage of the test plants was sprayed using a DeVilbiss atomizer (DeVilbiss Health Car, Inc., Somerset, Pa. 15501) driven by compressed air at a pressure of 22 kPa. Untreated controls were included.
(§4) Pots were placed in the greenhouse following compound application. Pots from postemergence and preemergence were sub-irrigated and top-watered, respectively, as needed for the duration of the test. Visual injury ratings were taken 9 and 16 days after treatment for postemergence and preemergence applications, respectively, on a 0 to 100 scale where 0 represents no injury and 100 represents complete necrosis.

[2] = test system: blackgrass (Alopecurus myosuroides, ALOMY)
Excerpt: as §1, §2, §3, §4

[3] = test system: sunflower (Helianthus annus, HELAN)
Excerpt: as §1, §2, §3, §4

[4] = test system: giant foxtail (Setaria faberi, SETFA)
Excerpt: as §1, §2, §3, §4

[5] = test system: barnyardgrass (Echinochloa crusgalli, ECHCG)
Excerpt: as §1, §2, §3, §4

[6] = test system: wild oats (Avena fatua, AVEFA)
Excerpt: as §1, §2, §3, §4

[7] = test system: morningglory (Ipomoea hederacea, IPOHE)
Excerpt: as §1, §2, §3, §4

[8] = test system: velvetleaf (Abutilon theophrasti, ABUTH)
Excerpt: as §1, §2, §3, §4

With C=C(CO)C(C)(O)CC(=O)O (centres unmarked) [methylidene mevalonate, 3-hydroxy-4-(hydroxymethyl)-3-methylpent-4-enoic acid] the “Visual Injury (%)” value ([1]; 0.5 kg ha^−1, AMARE) was 0%, the “Visual Injury (%)” value ([1]; 1.0 kg ha^−1, AMARE) was 0% and the “Visual Injury (%)” value ([1]; 2.0 kg ha^−1, AMARE) was 30%. For the same molecule, the “Visual Injury (%)” value ([1]; 4.0 kg ha^−1, AMARE) was 40%, the “Visual Injury (%)” value ([2]; 0.5 kg ha^−1, ALOMY) was 0% and the “Visual Injury (%)” value ([2]; 1.0 kg ha^−1, ALOMY) was 0%. For the same molecule, the “Visual Injury (%)” value ([2]; 2.0 kg ha^−1, ALOMY) was 20%, the “Visual Injury (%)” value ([2]; 4.0 kg ha^−1, ALOMY) was 30% and the “Visual Injury (%)” value ([3]; 0.5 kg ha^−1, HELAN) was 20%. The “Visual Injury (%)” value ([3]; 1.0 kg ha^−1, HELAN) was 30%, the “Visual Injury (%)” value ([3]; 2.0 kg ha^−1, HELAN) was 30% and the “Visual Injury (%)” value ([3]; 4.0 kg ha^−1, HELAN) was 60%. For the same molecule, the “Visual Injury (%)” value ([4]; 0.5 kg ha^−1, SETFA) was 0%, the “Visual Injury (%)” value ([4]; 1.0 kg ha^−1, SETFA) was 0% and the “Visual Injury (%)” value ([4]; 2.0 kg ha^−1, SETFA) was 20%. The “Visual Injury (%)” value ([4]; 4.0 kg ha^−1, SETFA) was 30%, the “Visual Injury (%)” value ([5]; 0.5 kg ha^−1, ECHCG) was 0% and the “Visual Injury (%)” value ([5]; 1.0 kg ha^−1, ECHCG) was 0%. The “Visual Injury (%)” value ([5]; 2.0 kg ha^−1, ECHCG) was 20%, the “Visual Injury (%)” value ([5]; 4.0 kg ha^−1, ECHCG) was 30% and the “Visual Injury (%)” value ([6]; 0.5 kg ha^−1, AVEFA) was 0%. The “Visual Injury (%)” value ([6]; 1.0 kg ha^−1, AVEFA) was 0%, the “Visual Injury (%)” value ([6]; 2.0 kg ha^−1, AVEFA) was 0% and the “Visual Injury (%)” value ([6]; 4.0 kg ha^−1, AVEFA) was 10%. The “Visual Injury (%)” value ([7]; 0.5 kg ha^−1, IPOHE) was 0%, the “Visual Injury (%)” value ([7]; 1.0 kg ha^−1, IPOHE) was 0% and the “Visual Injury (%)” value ([7]; 2.0 kg ha^−1, IPOHE) was 0%. For the same molecule, the “Visual Injury (%)” value ([7]; 4.0 kg ha^−1, IPOHE) was 20%, the “Visual Injury (%)” value ([8]; 0.5 kg ha^−1, ABUTH) was 0% and the “Visual Injury (%)” value ([8]; 1.0 kg ha^−1, ABUTH) was 0%. For the same molecule, the “Visual Injury (%)” value ([8]; 2.0 kg ha^−1, ABUTH) was 20% and the “Visual Injury (%)” value ([8]; 4.0 kg ha^−1, ABUTH) was 30%.
